The term melting point denotes the temperature of the solid-liquid transition.

The source of these data is a melting point compilation (Tetko et al.; mined from patent text by program, amines drawn as free bases though some values may be those of a salt).

Structures are written as SMILES.

As for `O=C1NC(=O)C(Cc2ccc(OCCN3c4ccccc4Sc4ccc(C(F)(F)F)cc43)cc2)S1` (configuration not stated), the melting point is 64 °C.

`COc1ccc2c(-c3ccc(OCCN4CCCC4)cc3)c(Cc3ccc(Cl)cc3)oc2c1` had a melting point of 75 °C.

Turning to `CCOc1nc2c(cnn2CC)nc1C#N`, the melting point lay in the range of 73 to 74 °C. The figure for `CCCn1nc(-c2ccncc2)nc1-c1ccncc1` is 88 to 89 °C.

`CC1=NN=C(C=Cc2ccccc2F)c2cc3c(cc2C1)OCO3`: the melting point was 138 to 141 °C. In the case of `O=[N+]([O-])c1ccc(N=C(NC(=S)NCc2cccnc2)c2ccccc2)cc1`, the melting point fell in the range of 179 to 180 °C.

Take `CCc1ccc(CC2CNC(=O)O2)cc1` (configuration not stated): the melting point lay within 133 to 134 °C. Molecule `COC(=O)c1nc(-c2cc(N(C)C)c(Cl)cc2F)cc(N)c1Cl` returned a melting point of 113 to 115 °C. For the molecule `N#CCCN(CC1CC1)C(N)=O`, the melting point lay in the range of 84 to 87 °C. The figure for `CCOc1ccccc1O[C@@H]1CN(Cc2ccccc2)C[C@H]1O` (relative stereo) is 88.5 to 90 °C; for `O=c1cc(C(F)(F)F)ccn1-c1c(Cl)cc(CF)cc1Cl` it is 121 to 122 °C.

Take `CC(C)(C)c1cc(C(c2ccc(F)cc2)N2CCCCC2)c(O)c(C(C)(C)C)c1` (configuration not stated): the melting point lay within 135 to 136 °C. The molecule `CCS(=O)(=O)Oc1ccccc1S(N)(=O)=O` came in with a melting point of 90 to 92.5 °C. In turn, `CCOc1cccc2c1c(=O)n(C)c1c(-c3noc(C4CC4)n3)ncn21` came in with a melting point of 195 to 205 °C. The figure for `CN(c1cc(OCCCS(C)(=O)=O)cc2cc(C(=O)O)[nH]c12)S(=O)(=O)c1ccccn1` is 207 to 208 °C. As to `O=C1NCCC[C@@H]1NS(=O)(=O)c1ccc(F)cc1F`, the melting point lay within 162 to 163 °C. The molecule `COCCOc1cc2c(Nc3cc(OC)c(Cl)cc3Cl)c(C#N)cnc2cc1F` displayed a melting point of 170 to 172 °C. The figure for `C=CCN1C(=O)C(O)(CC(=O)N(C)C)c2cc(CO)ccc21` (configuration not stated) is 125 °C. As for `Nc1ccc(CO)cc1N`, the melting point lay in the range of 74 to 75 °C. As for `O=C(Nc1cccc2c1C(=O)c1c-2n[nH]c1-c1ccc(C(=O)N2CCN(CC3CC3)CC2)s1)NN1CCOCC1`, the figure is 211 to 212 °C; as for `C[C@H](NC(=O)[C@@H]1CCCN1CCC(=O)O)C(=O)N1CCC[C@H]1C(=O)O`, 133 to 136 °C. Molecule `Cc1cc(Cl)cc2c(-c3ccc(Cl)cc3)onc12` came in with a melting point of 151 to 152 °C. As for `COCCc1nc2c(N)nc3ccccc3c2n1CC(C)C`, the figure is 168 to 170 °C. As for `Fc1cc(Cn2ccnc2)cc2c1Cc1c(-c3ccsc3)n[nH]c1-2`, the figure is 274 to 276 °C; as for `Cc1nc(-n2ccc(OCc3ccccn3)cc2=O)sc1C(=O)NCc1ccccc1`, 202 to 205 °C; as for `Cc1ccc2c(C3CCN(CC#N)CC3)cn(-c3ccc(F)cc3)c2c1`, 101 to 103 °C. The figure for `C=CCOCc1[nH]c(=O)c(CC(C)C)[n+]([O-])c1N` is 149 to 151 °C.

On to `COc1cc2c(cc1OC)C(c1ccc([N+](=O)[O-])cc1)NN(C1=NC(=O)C(C)S1)C(C)C2` (configuration not stated), for which the melting point lay within 213 to 214 °C. The molecule `COc1ccc(Cl)cc1-c1c(N)c(=O)[nH]c2c(C(F)(F)F)cccc12` displayed a melting point of 265 to 266 °C. `CC(=O)N1CCC(COC2c3ccccc3C(=O)N2c2ccc3ccc(Cl)nc3n2)CC1` (configuration not stated) registered a melting point of 160 °C. In turn, `O=C(O)c1cc(F)ccc1Nc1ccnc2c(C(F)(F)F)cccc12` yielded a melting point of 262 to 268 °C.

In turn, `C[Si](C)(C)CCOCn1cc(C#N)c(=O)c2cc([N+](=O)[O-])c(Cl)cc21` registered a melting point of 200 to 202 °C. Take `COC(=O)NC1CN(C(=O)Nc2ccc(OC(F)(F)F)cc2)NC1c1ccc(Cl)cc1` (configuration not stated): the melting point lay in the range of 107 to 114 °C. The figure for `O=C(NC[C@H]1O[C@@H]1c1ccccc1)C(F)(F)F` (racemic) is 79 °C. As for `O=C(O)C1Oc2ccc(Cl)cc2C(C2CCCCC2)(C2CCCCC2)O1` (configuration not stated), the figure is 208 °C. As for `Cc1nc(Nc2nc3cccc(C)c3[nH]2)nc(O)c1CC(=O)O`, the figure is more than 300 °C; as for `CCCOc1ccc(S(=O)(=O)N2CCN(CCOC(=O)c3ccccc3)CC2)cc1-c1nc2c(CCC)cn(CC)c2c(=O)[nH]1`, 78 to 79 °C. For `O=[N+]([O-])c1ccc(Sc2ccc(O)c(Cl)c2Cl)cc1`, the melting point is 204 °C. The figure for `Cc1cn(C)c2c1N(C(=O)C(C)N1CCCC1)c1ccccc1NC2=O` (configuration not stated) is 213 to 215 °C; for `COc1ccc(C(=C2CCN(CCc3c(C)nc4scc(C)n4c3=O)CC2)c2ccc(F)cc2)cc1` it is 140 °C. With `O=C(O)c1cn(C2CC2)c2c(C(F)(F)F)c(N3CCC(c4ccncc4)C3)c(F)cc2c1=O` (configuration not stated), the melting point fell in the range of 244 to 245 °C. As for `O=C(CC12CC3CC(CC(C3)C1)C2)Nc1c(Cl)ccc2ncccc12`, the figure is 219 to 220 °C; as for `CC(C)(C)OC(=O)Cc1nc(Sc2ccccc2)ccc1[N+](=O)[O-]`, 104 to 107 °C; as for `O=C(O)c1c([N+](=O)[O-])cccc1[N+](=O)[O-]`, 200 to 202 °C. As for `COc1ccsc1-c1nsc2ccc(N3C(=O)C4=C(CCCC4)C3=O)cc12`, the figure is 146 to 149 °C. In turn, `Cc1cc(=O)n(Cc2ccccc2)c2ccccc12` came in with a melting point of 109 to 111 °C. As for `CC1(C)OC(=O)C(Cc2c[nH]c3ccc(Br)cc23)C(=O)O1`, the figure is 179 to 181 °C; as for `COC(=O)c1cnc(C(=O)O)nc1`, 152 to 154 °C; as for `CCOc1nc2ccccc2nc1NC(=O)N1CCN(c2cc(Cl)cc(Cl)c2)CC1`, 157 to 159 °C. The figure for `O=C(NO)c1ccc(CNC(=O)c2[nH]c(-c3ccccc3)cc2-c2ccc(Cl)c(Cl)c2)cc1` is 187 to 188 °C. As for `CC1(C)CCC(C)(C)c2cc(NC(=O)c3ccc(C=CC(=O)O)cc3)ccc21`, the figure is 226 to 227 °C. Take `CCN1CCc2ccc(Nc3ncc(Cl)c(N[C@@H]4CCCC[C@H]4NC(C)=O)n3)cc2CC1`: the melting point was in the range of 248 to 250 °C. The figure for `O=C(c1ccccc1)c1ccc(Cl)c(N=C=S)c1` is 96.7 °C; for `COc1cc(OC)nc(NC(=O)NS(=O)(=O)c2ccccc2C2CO2)n1` (configuration not stated) it is 177 to 179 °C; for `NC(=O)c1ccc(C=CC(=O)N2CCc3c([nH]c4ccccc34)C2c2ccc3c(c2)OCO3)cc1` (configuration not stated) it is 183 °C. In turn, `COc1ccc(C(=O)NCCn2c(C)ccc2C)cc1OC` yielded a melting point of 82 to 84 °C. In turn, `CC(C)c1cccc(C(C)C)c1NC(=O)NC1CCc2ccccc2C1` (configuration not stated) returned a melting point of 214 to 215 °C. As for `Cc1cccc(C)c1N(CCn1ccnc1)C(=O)CCCc1cccnc1`, the figure is 104 to 106 °C; as for `O=C(NC1CCN(CCNC(=O)c2n[nH]c3ccccc23)CC1)OCc1ccccc1`, 184 to 187 °C; as for `CN(C)C(=O)CC1Cc2ccccc2NC1=O` (configuration not stated), 172 to 173 °C.

Consider `NS(=O)(=O)c1csc2cc(O)cnc12`, for which the melting point lay within 245 to 247 °C. The molecule `CCCCCCCCCCCc1nc2c(O)c(NC(C)=O)cc(Cl)c2cc1CCCCCCCCCC` had a melting point of 120 to 121 °C.
